Measured values taken from patent US9163020B2, “Azaindole compounds, synthesis thereof, and methods of using the same” (Global Alliance for TB Drug Development, priority 2013, dated 2015).
≈ marks a conversion by molar mass, not a printed value. Read-outs that look alike come from different tables or passages of the source.

What was measured:
[1] = system: Mycobacterium tuberculosis (Mtb) H37Rv ATCC 27294; assay: microbe, parasite or virus in culture; assay type: cell-based; settings: Mycobacterium tuberculosis, read-out: Mtb MIC
[2] = system: Mycobacterium tuberculosis (Mtb) H37Rv; assay: Mtb minimal bactericidal concentration (MBC), plating from MIC plates; assay type: cell-based; settings: Table 4, read-out: Mtb MBC
Experimental: Aliquots from sample wells (MIC and higher) from the MIC plates were diluted 1:10 and plated on 7H10 agar plates. Plates were incubated at 37° C. for 3-4 weeks, CFU was enumerated.

[3] = system: hypoxia induced non-replicating persistent (NRP) Mtb cells; assay: Activity against hypoxia induced non-replicating persistent (NRP) Mtb (HBC, Wayne model); assay type: cell-based, Mycobacterium tuberculosis
[4] = system: A549 human lung carcinoma cells; assay type: cell-based; settings: human, 72 h
Experimental: The in vitro cytotoxicity of compounds were measured against A549 human lung carcinoma cells as describedin Eakin et. al (2012). Briefly, A549 cells (ATCC) were grown in RPMI medium (GIBCO-BRL) containing 10% heat-inactivated fetal bovine serum (GIBCO-BRL) and 1 mM L-glutamine (GIBCO-BRL) at a density of 1,000 cells/well. After incubation of the cells with compound in a CO2 atmosphere at 37° C. for 72 hours, cell viability was determined following addition of […] of resazurin solution (Sigma), by measuring fluorescence (excitation at 535 nm, emission at 590 nm) using a fluorimeter.

physchem = assay type: physicochemical; settings: 25 °C, pH 7.4, aqueous buffer, thermodynamic from solid
Experimental: Solubility of the compounds in 0.1M phosphate buffer, pH 7.4 was determined as described, Glyburide was used as QC standard in the assay. Briefly, compounds were diluted in ACN/water (40:60) to desired concentration, samples were dried using Genevac for 4 hrs and subsequently 800 μl of buffer was added. Compound containing plates were stirred for 24 hrs at 25° C. on Eppendorf Thermomix R at 750 rpm. Finally, compound concentration was estimated using UV and MS analysis.

[5] = 1 μM
Experimental: Viability of cryopreserved hepatocytes was determined using trypan blue and the cell conc. was adjusted to 10^6 cells per mL with buffer (KHB buffer). 1 μM compound (in Acetonitrile; 0.01% DMSO) was incubated with 500 μL of hepatocyte cells (1 million cells per mL) in a NUNC plate. […] Supernatants were analyzed using LC-MS/MS for substrate depletion.

in vitro = in vitro ADME; settings: plasma
Experimental: Protein binding is measured using the equilibrium dialysis technique. Compound is added to 10% plasma giving a concentration of 20 μM and dialysed with isotonic buffer for 18 hours at 37° C. The plasma and buffer solutions are analysed using generic LCUVMS and the first apparent binding constant for the compound derived. The binding constant is then used to determine the % free in 100% plasma.

in vivo [6] = settings: BALB/c, mouse, 100 mg/kg; for AUC(0-inf) / Cmax: po; for AUC(0-inf): AUC0-∞
Experimental: ELF PK was performed in healthy mice (three mice/group) as described previously (Solapure et. al, 2013) after administration of a single oral dose of 100 mg/kg compound formulated in 0.5% HPMC, and 0.1% Tween 80 suspensions. […] Broncho-Alveolar Lavage (BAL) was performed after tracheotomy using 0.7 mL of ice-cold PBS. Urea estimation kit, DIUR-500 (Bio-assay Systems, U.S.A) was used for urea estimation in plasma and BAL samples. Volume of ELF was calculated after normalizing the urea concentration in BAL with that of plasma as described in Marry et. al, 2011. Plasma and BAL samples were stored at −20° C. until analysis using LC-MS/MS.
One mg/mL stock solution of each compound was prepared in Dimethylsulfoxide (DMSO) and diluted two-fold with acetonitrile. A sixteen point calibration curve was utilized for each analyte, and the standard curves ranged from 0.001 to 40 μg/mL. Plasma/BAL samples were precipitated by adding chilled acetonitrile (1:10 v/v) containing carbamazepine as internal standard (250 ng/mL). Samples were vortexed, and centrifuged at 4000 rpm for 30 min at 10° C. The resulting supernatant was mixed with mobile phase (50% acetonitrile in water with 0.1% formic acid). […] of sample was injected on to a liquid chromatographic system (Waters-ACQUTY UPLC) coupled to triple quadrupole mass spectrometer (Waters-ACQUTY-TQD; MS/MS). Samples were acquired in positive ion mode and detected by multiple reaction monitoring (MRM). Concentrations of the analyte were determined from a standard curve obtained by plotting known concentrations of the analyte against peak area ratios (analyte/internal standard peak response).
Volume of ELF in the BAL samples was calculated as volume of BAL multiplied by the ratio of urea concentrations in BAL and plasma as described (Solapure et. al, 2013; Marry et. al, 2011) The compound concentration in ELF was calculated by multiplying concentration in BAL samples by the ratio of BAL volume to the ELF volume. AUC0-∞ in plasma and ELF were calculated by Non-compartmental analysis WinNonlin Phoenix Software (version 6.2; Pharsight, USA). Free plasma AUC was calculated after multiplying concentrations at each time point by the free fraction in plasma. Lung ELF penetration ratio was calculated as a ratio of AUC0-∞ in ELF to free AUC0-∞ in free plasma/total plasma during the same time interval. This ratio, measured in healthy mice after single dose administration, was assumed to remain constant during multiple dose efficacy study in the infected mice. Sparse sample analysis in WinNonlin was used for estimating standard error (SE) associated with AUC estimate.

hERG = hERG (Homo sapiens, UniProt Q12809)
Chain of hERG (Q12809 whole entry): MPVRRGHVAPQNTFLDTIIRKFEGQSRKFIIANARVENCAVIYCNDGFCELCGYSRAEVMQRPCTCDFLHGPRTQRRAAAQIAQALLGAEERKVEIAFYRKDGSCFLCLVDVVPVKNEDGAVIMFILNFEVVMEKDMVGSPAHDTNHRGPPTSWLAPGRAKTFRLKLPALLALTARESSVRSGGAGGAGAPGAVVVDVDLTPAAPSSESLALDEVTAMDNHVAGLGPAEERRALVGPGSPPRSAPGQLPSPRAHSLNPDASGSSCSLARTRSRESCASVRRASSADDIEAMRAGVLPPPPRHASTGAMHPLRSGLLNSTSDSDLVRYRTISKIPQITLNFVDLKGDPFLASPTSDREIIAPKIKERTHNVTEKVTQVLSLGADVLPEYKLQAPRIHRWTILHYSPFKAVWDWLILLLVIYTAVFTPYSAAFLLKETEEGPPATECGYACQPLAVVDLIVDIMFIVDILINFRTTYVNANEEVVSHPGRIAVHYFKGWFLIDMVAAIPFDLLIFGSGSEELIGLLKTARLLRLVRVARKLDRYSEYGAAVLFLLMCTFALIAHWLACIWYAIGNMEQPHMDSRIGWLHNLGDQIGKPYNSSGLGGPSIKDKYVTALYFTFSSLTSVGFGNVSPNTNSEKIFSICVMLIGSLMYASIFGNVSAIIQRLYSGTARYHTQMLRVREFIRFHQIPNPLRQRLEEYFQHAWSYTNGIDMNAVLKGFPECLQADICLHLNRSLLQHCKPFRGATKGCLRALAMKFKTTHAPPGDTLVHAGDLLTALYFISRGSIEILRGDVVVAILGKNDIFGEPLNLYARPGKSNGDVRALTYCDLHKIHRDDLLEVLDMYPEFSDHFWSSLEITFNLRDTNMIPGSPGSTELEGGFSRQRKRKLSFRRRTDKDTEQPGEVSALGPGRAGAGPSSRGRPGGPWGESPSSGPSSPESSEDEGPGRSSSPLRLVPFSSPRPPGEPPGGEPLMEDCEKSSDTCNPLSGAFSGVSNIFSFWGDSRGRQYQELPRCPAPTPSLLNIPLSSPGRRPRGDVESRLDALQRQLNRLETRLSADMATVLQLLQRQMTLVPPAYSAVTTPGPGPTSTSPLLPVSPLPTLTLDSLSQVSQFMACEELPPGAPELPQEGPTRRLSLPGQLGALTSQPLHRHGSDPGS
Experimental: Compounds were tested on voltage-gated ion channels using the medium-throughput electrophysiology IonWorks™ device. […] For carrying out the experiment, a boat in the “Cells” position of the IonWorks™ instrument was loaded with the cell suspension, and a 96-well PBS destination plate was placed in the “Plate 1” position. A 384-well PatchPlate™ was placed in the IonWorks™ plenum and held in position using the plenum clamp. From this point the experiment progress is automated and ultimately reports a non-cumulative concentration-effect curve for test compound.

[7] = system: panel of human targets and cardiac channels
[8] = infected BALB/c mice, acute efficacy, +ABT
in vivo [9] = settings: BALB/c, mouse, po, 50 mg/kg

**Q.** Which MIC ([1]; Table 1) does the source give for `COc1ncnc(Cn2cc(C(=O)NCCF)c3ncccc32)c1C` [Compound 3, N-(2-fluoroethyl)-1-((6-methoxy-5-methylpyrimidin-4-yl)methyl)-1H-pyrrolo[3,2-b]pyridine-3-carboxamide] here?
**A.** Its MIC is 1.56 µM (≈ 0.536 µg/mL).

**Q.** And the MIC ([1]; Table 4)?
**A.** The MIC was 1.56 to 3.12 µM (≈ 0.536 to 1.07 µg/mL).

**Q.** What about the MBC [2] of the same compound?
**A.** The MBC was 1.56 to 3.12 µM (≈ 0.536 to 1.07 µg/mL).

**Q.** What about the “activity against non-replicating Mtb under hypoxic conditions” value ([3]; cidality measured as HBC in Wayne model) of the same compound?
**A.** Its value is “moderate activity”.

**Q.** And the “Mtb HBC” value ([3]; hypoxic conditions, Wayne model, Table 4)?
**A.** Its value is 50 µM.

**Q.** And the “MMIC (A549)” value [4]?
**A.** Its value is greater than 100 µM.

**Q.** What about the solubility at 24 h (physchem) of the same compound?
**A.** The solubility at 24 h was 8 µM (≈ 2.75 µg/mL).

**Q.** What about the “Human CLpred hepatocytes (% LBF)” value [5] of the same compound?
**A.** The value was 6.0 % LBF.

**Q.** What about the “Rat CLpred hepatocytes (% LBF)” value [5] of the same compound?
**A.** Its value is 13 % LBF.

**Q.** What about the fraction unbound at 18 h, 20 μM (in vitro; human) of the same compound?
**A.** The fraction unbound at 18 h, 20 μM was 0.05 to 0.22.

**Q.** What about the “Human PPB (% free)” value (in vitro) of the same compound?
**A.** Its value is 9.8 % free.

**Q.** And the Kp (in vivo [6]; ELF penetration ratio (based on free plasma AUC))?
**A.** The Kp was 7.29 to 26.1.

**Q.** And the Kp (in vivo [6]; ELF penetration ratio (based on total plasma AUC))?
**A.** The Kp was 0.6 to 1.97.

**Q.** And the AUC(0-inf) (in vivo [6]; ELF)?
**A.** The AUC(0-inf) was 713 ± 176 µM·h.

**Q.** What about the AUC(0-inf) (in vivo [6]; Plasma) of the same compound?
**A.** The AUC(0-inf) was 573 ± 78.8 µM·h.

**Q.** What about the AUC(0-inf) (in vivo [6]; fPlasma) of the same compound?
**A.** The AUC(0-inf) was 43.5 ± 5.96 µM·h.

**Q.** What about the Cmax (in vivo [6]; ELF) of the same compound?
**A.** Its Cmax is 74 ± 3.77 µM.

**Q.** What about the Cmax (in vivo [6]; Plasma) of the same compound?
**A.** The Cmax was 63.8 ± 7.37 µM.

**Q.** What about the Cmax (in vivo [6]; fPlasma) of the same compound?
**A.** Its Cmax is 4.85 ± 0.56 µM.

**Q.** What about the hERG (hERG) of the same compound?
**A.** Its hERG is greater than 33 µM.

**Q.** And the “Secondary pharmacology hits IC50” value [7]?
**A.** Its value is “No significant hits”.

**Q.** What about the “in vitro safety profiling” value [7] of the same compound?
**A.** Its value is “no major safety liabilities”.

**Q.** What about the “% T > MIC” value ([8]; multiple oral doses 50 mg/kg) of the same compound?
**A.** The value was 58%.

**Q.** What about the “% fT > MIC” value ([8]; multiple oral doses 50 mg/kg) of the same compound?
**A.** Its value is 23%.

**Q.** And the “% T > MIC” value ([8]; multiple oral doses 100 mg/kg)?
**A.** The value was 66%.

**Q.** What about the “% fT > MIC” value ([8]; multiple oral doses 100 mg/kg) of the same compound?
**A.** The value was 41%.

**Q.** And the AUC(0-inf) (in vivo [9])?
**A.** The AUC(0-inf) was 106 ± 3.04 µM·h.

**Q.** And the Cmax (in vivo [9])?
**A.** Its Cmax is 17.8 ± 5.61 µM.

**Q.** And the Tmax (in vivo [9])?
**A.** Its Tmax is 4.33 ± 1.15 h.

**Q.** And the half-life (in vivo [9])?
**A.** Its half-life is 2.38 ± 0.19 h.
